In patent US11878995B2, “Oxysterols and methods of use thereof” (SAGE THERAPEUTICS, INC., priority 2016, dated 2024):

Target: T1, GlunN1/GluN2A glutamate receptors (Homo sapiens, UniProt Q05586+Q12879)
T1 construct: expressed in transfected cells
Assay: Whole-cell patch clamp of mammalian cells (Ionworks Barracuda), NMDA potentiation
Type: cell-based
Conditions: 3 μM compound; HEK293 cells expressing human GRIN1/GRIN2A; co-application with EC20 L-glutamate and 30 μM glycine
Procedure: NMDA potentiation was assessed using either whole cell patch clamp of mammalian cells which expressed NMDA receptors.
Whole-Cell Patch Clamp of Mammalian Cells (Ionworks Barracuda (IWB))
The whole-cell patch-clamp technique was used to investigate the effects of compounds on GlunN1/GluN2A glutamate receptors expressed in mammalian cells.
HEK293 cells were transformed with adenovirus 5 DNA and transfected with cDNA encoding the human GRIN1/GRIN2A genes. Stable transfectants were selected using G418 and Zeocin-resistance genes incorporated into the expression plasmid and selection pressure maintained with G418 and Zeocin in the medium. Cells were cultured in Dulbecco's Modified Eagle Medium/Nutrient Mixture (D-MEM/F-12) supplemented with 10% fetal bovine serum, 100 μg/ml penicillin G sodium, 100 μg/ml streptomycin sulphate, 100 μg/ml Zeocin, 5 μg/ml blasticidin and 500 μg/ml G418.
Test article effects were evaluated in 8-point concentration-response format (4 replicate wells/concentration). […]
• a) Intracellular solution (mM): 50 mM CsCl, 90 mM CsF, 2 mM MgCl2, 5 mM EGTA, 10 mM HEPES. […] Cell suspension will be pipetted into the wells (9 μL per well) of the PPC planar electrode. • b) Whole-cell recording configuration will be established via patch perforation with membrane currents recorded by on-board patch clamp amplifiers. • c) Two recordings (scans) will be performed. […]

T1 sequence (Q12879 23-1464, other chains not shown): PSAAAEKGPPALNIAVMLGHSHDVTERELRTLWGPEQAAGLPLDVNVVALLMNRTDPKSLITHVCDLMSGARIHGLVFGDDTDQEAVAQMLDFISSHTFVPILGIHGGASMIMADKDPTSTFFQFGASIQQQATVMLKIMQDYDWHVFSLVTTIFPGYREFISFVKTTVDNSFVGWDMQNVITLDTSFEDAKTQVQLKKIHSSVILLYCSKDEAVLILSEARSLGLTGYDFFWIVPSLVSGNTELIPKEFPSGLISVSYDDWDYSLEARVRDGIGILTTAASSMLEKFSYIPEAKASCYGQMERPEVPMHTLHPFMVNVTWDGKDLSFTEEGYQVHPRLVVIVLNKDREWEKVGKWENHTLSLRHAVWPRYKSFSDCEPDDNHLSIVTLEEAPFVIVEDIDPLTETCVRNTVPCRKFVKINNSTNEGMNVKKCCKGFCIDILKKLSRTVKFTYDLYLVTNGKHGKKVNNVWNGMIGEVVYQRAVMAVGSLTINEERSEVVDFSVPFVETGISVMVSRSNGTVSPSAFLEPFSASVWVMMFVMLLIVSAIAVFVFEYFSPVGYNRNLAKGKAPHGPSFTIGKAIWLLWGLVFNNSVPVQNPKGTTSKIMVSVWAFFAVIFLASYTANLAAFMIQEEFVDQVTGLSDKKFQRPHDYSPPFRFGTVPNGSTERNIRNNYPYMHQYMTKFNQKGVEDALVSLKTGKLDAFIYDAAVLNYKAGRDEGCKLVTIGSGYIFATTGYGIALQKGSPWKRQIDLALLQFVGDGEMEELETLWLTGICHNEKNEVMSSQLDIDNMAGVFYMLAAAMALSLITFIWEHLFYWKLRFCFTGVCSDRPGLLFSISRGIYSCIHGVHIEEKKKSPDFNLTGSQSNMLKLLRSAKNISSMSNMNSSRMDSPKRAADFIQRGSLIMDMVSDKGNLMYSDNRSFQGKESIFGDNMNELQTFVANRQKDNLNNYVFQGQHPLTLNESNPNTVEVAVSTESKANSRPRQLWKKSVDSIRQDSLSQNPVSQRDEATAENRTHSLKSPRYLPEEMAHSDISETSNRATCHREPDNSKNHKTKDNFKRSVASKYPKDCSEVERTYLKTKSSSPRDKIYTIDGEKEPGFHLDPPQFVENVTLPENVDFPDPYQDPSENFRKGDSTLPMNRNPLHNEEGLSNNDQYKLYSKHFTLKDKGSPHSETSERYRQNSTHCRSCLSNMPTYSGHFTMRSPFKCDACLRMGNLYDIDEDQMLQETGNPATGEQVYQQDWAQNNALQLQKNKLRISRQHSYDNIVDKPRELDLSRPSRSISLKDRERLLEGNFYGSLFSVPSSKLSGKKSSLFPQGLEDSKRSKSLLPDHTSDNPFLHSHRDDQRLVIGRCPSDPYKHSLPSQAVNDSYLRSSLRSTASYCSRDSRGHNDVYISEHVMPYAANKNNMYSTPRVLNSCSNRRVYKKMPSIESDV

For [2H]C(O)(CC[C@@H](C)[C@H]1CC[C@H]2[C@@H]3CC=C4C[C@]([2H])(O)CC[C@]4(C)[C@H]3CC[C@]12C)C(C)C (stereo partly shown) [Compound 7], the “GluN2A PCA IWB Ephys % potentiation at 3 μM” value was “C (“C” indicates potentiation of >150% to 225%)”.
